Data set [1] in a line: Drug internalization in human HeLa cells at 1 uM by RP-HPLC-MS analysis. Format: ADME, cell-based.
Data set [2] deals with HeLa. The data set can be described thus: Inhibition of protein synthesis in human HeLa cells at 50 to 500 uM pre-incubated for 1 hr before L-[35S]-cysteine and L-[35S]-methionine addition and measured after 1 hr by Comassie staining based autoradiography. The format is functional, cell-based.

Each structure is given as a SMILES string. Calls of active or inactive are those of the source. No cut-off for these calls is given here.

In data set [1], `C/C=C(\C)C(=O)O[C@H]1[C@H](O)[C@]2(COC(C)=O)[C@@H](O)C[C@]3(C)C(=CC[C@@H]4[C@@]5(C)CC[C@H](O[C@@H]6O[C@H](C(=O)NCC)[C@@H](O)[C@H](O)[C@H]6O)[C@@](C)(CO)[C@@H]5CC[C@]43C)[C@@H]2CC1(C)C` gave a Drug uptake of 15%. For the same compound, the inhibition entry in data set [2] was “inactive”.

For the origin of these results see ChEMBL document CHEMBL4270485, “Determination of Gymnemic Acid I as a Protein Biosynthesis Inhibitor Using Chemical Proteomics” (J Nat Prod, 2017).
